According to patent EP4631498A1, “EYE DROP-TYPE PHARMACEUTICAL COMPOSITION CONTAINING ENVOGLIFLOZIN” (Daewoong Therapeutics Inc., priority 2022, dated 2024):
Values after ≈ are worked out from the molar mass of the structure shown. Read-outs that look alike come from different tables or passages of the source.

Assay: Saturation solubility of enavogliflozin in aqueous excipient solutions (HPLC)
Format: physicochemical
Conditions: for solubility at 12 h: aqueous excipient solution (excipient in purified water), thermodynamic from solid
Procedure: According to Table 1 below, enavogliflozin in the amount corresponding to each standard solution and 70 mL of methanol were placed in a volumetric flask and then completely dissolved under ultrasonic agitation. Methanol was added thereto to adjust the total volume to 100 mL. The resulting solution was taken and filtered through a 0.45 µm RC (Regenerated Cellulose) membrane filter. The first 2 mL was discarded and then the filtrate was used as a standard solution.
Each excipient was dissolved in 5 mL of purified water at the maximum concentration recommended by the FDA (Table 2) and then enavogliflozin was added thereto until it was no longer dissolved, followed by stirring for approximately 12 hours. After confirming no dissolution after 12 hours, each sample was centrifuged at 4000 rpm for 30 minutes and the clear supernatant (1 mL) was taken and then diluted with methanol. The resulting solution was filtered through a 0.45 µm RC membrane filter. The first 2 mL was discarded and then the filtrate was used as a test solution.
The peak areas of the standard and test solutions were analyzed under the following HPLC conditions. • Detector: UV spectrophotometer (wavelength: 225 nm) • Column: Capcellpak C18 (4.6 x 250 mm, 5 µm) • Column temperature: about 35°C • Sample temperature: about 25°C • Mobile phase: Buffer solution : acetonitrile = 25 : 75 (v/v) (Buffer solution: prepared by dissolving 100 µl of trifluoroacetic acid in 1000 mL of water) • Flow rate: 1.0 mL/min • Injection volume: 10 µL • Analysis time: about 20 minutes
Polyoxyl 40 stearate (Myrj™ S40) was dissolved in 5 mL of purified water at the concentration of 7.0 w/v% and then enavogliflozin was added thereto until it was no longer dissolved, followed by stirring for approximately 12 hours. Thereafter, the degree of solubilization was evaluated in the same manner as in Example 1.

Solubility for unit concentration (Aqualon™ CMC 0.50 %w/v): 0.59 mg/%
Solubility for unit concentration (Cavasol™ W8 1.50 %w/v): 0.72 mg/%
Solubility for unit concentration (EtOH 0.50 %w/v): 0.51 mg/%
Solubility for unit concentration (Glycerol 2.25 %w/v): 0.11 mg/%
Solubility for unit concentration (HPMC 606 0.60 %w/v): 0.56 mg/%
Solubility for unit concentration (Kollidon™ K30 15.00 %w/v): 0.24 mg/%
Solubility for unit concentration (Kollidon™ K90 1.50 %w/v): 0.41 mg/%
Solubility for unit concentration (Kolliphor™ EL 5.00 %w/v): 3.37 mg/%
Solubility for unit concentration (Kolliphor™ HS 15 0.25 %w/v): 4.09 mg/%
Solubility for unit concentration (Kolliphor™ RH 40 1.00 %w/v): 3.64 mg/%
Solubility for unit concentration (Kollisolv™ PG 1.50 %w/v): 0.18 mg/%
Solubility for unit concentration (PEG 400 4.00 %w/v): 0.08 mg/%
Solubility for unit concentration (TPGS 0.50 %w/v): 4.63 mg/%
Solubility for unit concentration (Tween™ 20 0.05 %w/v): 7.21 mg/%
Solubility for unit concentration (Tween™ 80 4.00 %w/v): 3.95 mg/%
solubility at 12 h (aqueous with cosolvent or surfactant or cyclodextrin, Aqualon™ CMC 0.50 %w/v in purified water, read-out: Saturation solubility): 300 µg/mL (≈ 671 µM)
solubility at 12 h (aqueous with cosolvent or surfactant or cyclodextrin, Cavasol™ W8 1.50 %w/v in purified water, read-out: Saturation solubility): 1090 µg/mL (≈ 2440 µM)
solubility at 12 h (aqueous with cosolvent or surfactant or cyclodextrin, HPMC 606 0.60 %w/v in purified water, read-out: Saturation solubility): 330 µg/mL (≈ 738 µM)
solubility at 12 h (aqueous with cosolvent or surfactant or cyclodextrin, Kollidon™ K30 15.00 %w/v in purified water, read-out: Saturation solubility): 3600 µg/mL (≈ 8060 µM)
solubility at 12 h (aqueous with cosolvent or surfactant or cyclodextrin, Kollidon™ K90 1.50 %w/v in purified water, read-out: Saturation solubility): 620 µg/mL (≈ 1390 µM)
solubility at 12 h (aqueous with cosolvent or surfactant or cyclodextrin, Kolliphor™ EL 5.00 %w/v in purified water, read-out: Saturation solubility): 16800 µg/mL (≈ 37700 µM)
solubility at 12 h (aqueous with cosolvent or surfactant or cyclodextrin, Kolliphor™ EL 5.0 w/v% in purified water, read-out: Saturation solubility of enavogliflozin): 16800 µg/mL (≈ 37700 µM)
solubility at 12 h (aqueous with cosolvent or surfactant or cyclodextrin, Kolliphor™ HS 15 0.25 %w/v in purified water, read-out: Saturation solubility): 1020 µg/mL (≈ 2280 µM)
solubility at 12 h (aqueous with cosolvent or surfactant or cyclodextrin, Kolliphor™ RH 40 1.00 %w/v in purified water, read-out: Saturation solubility): 3640 µg/mL (≈ 8140 µM)
solubility at 12 h (aqueous with cosolvent or surfactant or cyclodextrin, Polyoxyl 40 stearate 7.0 w/v% in purified water, read-out: Saturation solubility of enavogliflozin): 32000 µg/mL (≈ 71600 µM)
solubility at 12 h (aqueous with cosolvent or surfactant or cyclodextrin, TPGS 0.50 %w/v in purified water, read-out: Saturation solubility): 2310 µg/mL (≈ 5170 µM)
solubility at 12 h (aqueous with cosolvent or surfactant or cyclodextrin, Tween™ 20 0.05 %w/v in purified water, read-out: Saturation solubility): 360 µg/mL (≈ 806 µM)
solubility at 12 h (aqueous with cosolvent or surfactant or cyclodextrin, Tween™ 80 4.00 %w/v in purified water, read-out: Saturation solubility): 15800 µg/mL (≈ 35400 µM)
solubility at 12 h (water, EtOH 0.50 %w/v in purified water, read-out: Saturation solubility): 260 µg/mL (≈ 582 µM)
solubility at 12 h (water, Glycerol 2.25 %w/v in purified water, read-out: Saturation solubility): 240 µg/mL (≈ 537 µM)
solubility at 12 h (water, Kollisolv™ PG 1.50 %w/v in purified water, read-out: Saturation solubility): 270 µg/mL (≈ 604 µM)
solubility at 12 h (water, PEG 400 4.00 %w/v in purified water, read-out: Saturation solubility): 330 µg/mL (≈ 738 µM)
SMILES: OC[C@H]1O[C@@H](c2cc(Cc3ccc(C4CC4)cc3)c(Cl)c3c2CCO3)[C@H](O)[C@@H](O)[C@@H]1O [enavogliflozin, Enavogliflozin]
